# Measured values taken from US20090270478A1, “ION CHANNEL MODULATING ACTIVITY II” (CARDIOME PHARMA CORP., priority 2000, published 2009).
# Legend:
# [1] = molecular target: human heart sodium channel (hH1) (Homo sapiens, UniProt Q14524); assay type: cell-based
# hH1 sodium channel = molecular target: T1, hH1 sodium channel (Homo sapiens, UniProt Q14524); assay: Inactivated state inhibition of hH1 sodium channel current (prepulse protocol); assay type: cell-based
# T1 construct: expressed in transfected cells
# [2] = test system: isolated rabbit Purkinje fibers; conditions: 100 μM lidocaine, 300 nM dofetilide
# Sequence of human heart sodium channel (hH1) (Q14524 whole entry, looked up): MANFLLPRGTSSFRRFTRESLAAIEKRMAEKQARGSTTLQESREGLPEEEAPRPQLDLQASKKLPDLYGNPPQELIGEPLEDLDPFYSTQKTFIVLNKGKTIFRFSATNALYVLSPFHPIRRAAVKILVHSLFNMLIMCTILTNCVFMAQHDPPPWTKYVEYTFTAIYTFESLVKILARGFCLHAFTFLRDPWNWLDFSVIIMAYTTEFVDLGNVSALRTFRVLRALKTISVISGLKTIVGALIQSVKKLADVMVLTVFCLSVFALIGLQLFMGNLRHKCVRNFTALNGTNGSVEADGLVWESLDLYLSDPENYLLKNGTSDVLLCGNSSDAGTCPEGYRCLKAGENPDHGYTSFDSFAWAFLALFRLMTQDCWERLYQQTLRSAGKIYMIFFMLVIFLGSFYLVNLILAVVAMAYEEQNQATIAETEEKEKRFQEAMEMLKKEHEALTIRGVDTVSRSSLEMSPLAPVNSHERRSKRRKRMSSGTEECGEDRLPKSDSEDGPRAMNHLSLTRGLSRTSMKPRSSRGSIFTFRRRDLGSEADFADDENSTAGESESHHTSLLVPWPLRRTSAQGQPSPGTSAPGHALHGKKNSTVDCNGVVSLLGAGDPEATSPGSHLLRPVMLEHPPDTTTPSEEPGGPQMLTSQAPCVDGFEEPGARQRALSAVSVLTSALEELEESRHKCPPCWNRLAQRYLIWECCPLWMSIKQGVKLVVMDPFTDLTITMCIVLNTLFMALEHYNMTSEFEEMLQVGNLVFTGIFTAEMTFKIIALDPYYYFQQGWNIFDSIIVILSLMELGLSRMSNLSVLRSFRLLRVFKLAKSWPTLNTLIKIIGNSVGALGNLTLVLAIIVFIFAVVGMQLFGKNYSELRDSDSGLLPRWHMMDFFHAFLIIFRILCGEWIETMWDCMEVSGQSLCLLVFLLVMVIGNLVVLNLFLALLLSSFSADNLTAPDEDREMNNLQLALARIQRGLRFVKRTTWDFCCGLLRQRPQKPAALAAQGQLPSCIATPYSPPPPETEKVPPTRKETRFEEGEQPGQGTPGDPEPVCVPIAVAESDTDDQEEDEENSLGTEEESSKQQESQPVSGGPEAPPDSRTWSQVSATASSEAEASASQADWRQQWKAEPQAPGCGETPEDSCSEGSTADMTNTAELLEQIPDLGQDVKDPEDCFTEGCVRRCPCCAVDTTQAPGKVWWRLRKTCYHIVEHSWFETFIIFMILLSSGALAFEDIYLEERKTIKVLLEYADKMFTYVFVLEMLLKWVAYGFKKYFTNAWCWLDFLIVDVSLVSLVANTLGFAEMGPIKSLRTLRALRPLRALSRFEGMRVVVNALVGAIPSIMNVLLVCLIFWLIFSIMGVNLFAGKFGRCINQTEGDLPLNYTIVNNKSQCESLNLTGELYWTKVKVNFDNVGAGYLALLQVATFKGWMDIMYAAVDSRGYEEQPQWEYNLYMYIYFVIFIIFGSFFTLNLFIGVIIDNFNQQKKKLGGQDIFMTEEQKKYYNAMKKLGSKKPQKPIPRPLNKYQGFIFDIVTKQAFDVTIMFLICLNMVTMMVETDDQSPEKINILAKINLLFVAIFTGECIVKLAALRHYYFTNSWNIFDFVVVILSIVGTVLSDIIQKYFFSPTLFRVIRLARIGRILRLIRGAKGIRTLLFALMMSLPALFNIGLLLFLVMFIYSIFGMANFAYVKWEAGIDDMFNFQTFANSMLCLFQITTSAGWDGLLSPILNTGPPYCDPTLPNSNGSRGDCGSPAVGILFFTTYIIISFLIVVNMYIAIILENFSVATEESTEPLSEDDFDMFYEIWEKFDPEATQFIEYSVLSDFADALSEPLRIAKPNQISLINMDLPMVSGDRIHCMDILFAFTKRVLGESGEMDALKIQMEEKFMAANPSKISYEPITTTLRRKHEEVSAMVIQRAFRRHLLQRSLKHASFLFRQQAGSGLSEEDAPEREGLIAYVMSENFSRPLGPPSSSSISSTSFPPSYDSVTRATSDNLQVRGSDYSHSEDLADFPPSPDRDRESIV
# T1 sequence (Q14524 whole entry): as the sequence (Q14524 whole entry, looked up) above
compound,measurement,setting,value
CCN(CC)CC(=O)Nc1c(C)cccc1C [lidocaine],"block of early TTX-sensitive sodium current, Iearly(TTX)",[1],41±2.7%
same,"block of late TTX-sensitive sodium current, Ilate(TTX)",[1],73±2.8%
same,"block of sustained TTX-sensitive sodium current, Isus(TTX)",[1],70±2.5%
same,inhibition of hH1 with longer prepulses (inactivated state inhibition),hH1 sodium channel,produced enhanced inhibition when prepulses of longer duration were applied
same,termination of dofetilide-induced EADs,[2],terminated dofetilide-induced (300 nM) EADs
